From ChEMBL document CHEMBL2375337, “Synthesis and anti-H5N1 activity of chiral gossypol derivatives and its analogs implicated by a viral entry blocking mechanism” (Bioorg Med Chem Lett, 2013)
pIC50: −log10 of the molar value. Where “and” joins values, the source holds several entries; their conditions need not be identical. Equal values may be shown once. Calls of active or inactive are those of the source. The rule behind the calls is not given here.

Experiments:
[1] = Selectivity index, ratio of CC50 for MDCK cells to IC50 for Influenza A virus (A/Vietnam/1194/2004(H5N1)); assay type: functional
[2] = (§1) Cytotoxicity against MDCK cells by MTT assay; assay type: cell-based, Canis lupus familiaris; conditions: dog, MDCK cells
Influenza A virus [3] = assay: Antiviral activity against Influenza A virus (A/Vietnam/1194/2004(H5N1)) infected in MDCK cells by plaque reduction assay; assay type: functional, organism-based; conditions: for pIC50: read-out: IC50
H5N1 subtype [4] = assay: Inhibition of H5N1 subtype hemagglutinin adsorption into chicken RBC at 100 ug/mL
Influenza A virus [5] = assay: Antiviral activity against Influenza A virus (A/Vietnam/1194/2004(H5N1)) infected in MDCK cells assessed as inhibition of viral entry at 20 uM treated 2 hrs prior to infection; assay type: functional, organism-based
Influenza A virus [6] = assay: Antiviral activity against Influenza A virus (A/Vietnam/1194/2004(H5N1)) infected in MDCK cells assessed as inhibition of viral entry at 20 uM treated 2 hrs post infection; assay type: functional, organism-based
Influenza A virus [7] = assay: Antiviral activity against Influenza A virus (A/Vietnam/1194/2004(H5N1)) infected in MDCK cells assessed as inhibition of viral entry at 20 uM treated at the time of infection; assay type: functional, organism-based
H5N1 subtype [8] = assay: Inhibition of H5N1 subtype neuraminidase up to 20 uM
MDCK = assay: as §1; assay type: cell-based, Canis lupus familiaris; conditions: dog, mdck
H5N1 subtype [9] = assay: Antiviral activity against H5N1 subtype infected in MDCK cells; assay type: functional, organism-based; conditions: Influenza A virus
[10] = Selectivity index, ratio of cytotoxicity against MDCK cells to antiviral activity against H5N1 subtype; assay type: toxicity, cell-based; conditions: dog, read-out: Selectivity Index

| Compound | Ratio CC50/IC50 [1] | CC50 [2] | pIC50 (Influenza A virus [3]; mdck) | CC50 (MDCK) | further results |
| --- | --- | --- | --- | --- | --- |
| CC[C@H](C)[C@H](N/C=C1\C(=O)C(O)=C(C(C)C)c2cc(C)c(-c3c(C)cc4c(c3O)/C(=C/N[C@H](C(=O)[O-])[C@@H](C)CC)C(=O)C(O)=C4C(C)C)c(O)c21)C(=O)[O-].[Na+].[Na+] (stereo in doubt; (-)-8a) | >58.68 | > 42.2 µM | 6.14 |  |  |
| COC(=O)[C@H](C)N/C=C1\C(=O)C(O)=C(C(C)C)c2cc(C)c(-c3c(C)cc4c(c3O)/C(=C/N[C@@H](C)C(=O)OC)C(=O)C(O)=C4C(C)C)c(O)c21 (stereo in doubt; (-)-10a) | >25.2 | > 48.4 µM | 5.72 |  |  |
| Cc1cc2c(C(C)C)c(O)c(O)c(C(=O)O)c2c(O)c1-c1c(C)cc2c(C(C)C)c(O)c(O)c(C(=O)O)c2c1O | 18.62 and 15.82 | 60.6 µM | 5.71 | 36.3 µM | inhibition (H5N1 subtype [4]): inactive; inhibition (Influenza A virus [5]): inactive; inhibition (Influenza A virus [6]): inactive; inhibition (Influenza A virus [7]): inactive; inhibition (H5N1 subtype [8]): inactive; pIC50 (Influenza A virus [3]; Influenza A virus, MDCK): 5.42; pIC50 (H5N1 subtype [9]): 5.63; selectivity ratio [10]: 10.5 |
| Cc1cc2c(c(O)c1-c1c(C)cc3c(c1O)/C(=C/NC(C)(C)C(=O)[O-])C(=O)C(O)=C3C(C)C)/C(=C/NC(C)(C)C(=O)[O-])C(=O)C(O)=C2C(C)C.[Na+].[Na+] (stereo in doubt; (-)-9a) | 31.96 | 50.5 µM |  |  | pIC50 (Influenza A virus [3]; Influenza A virus, MDCK): 5.80 |
| COC(=O)[C@H](Cc1c[nH]c2ccccc12)N/C=C1\C(=O)C(O)=C(C(C)C)c2cc(C)c(-c3c(C)cc4c(c3O)/C(=C/N[C@@H](Cc3c[nH]c5ccccc35)C(=O)OC)C(=O)C(O)=C4C(C)C)c(O)c21 (stereo in doubt; (-)-11a) | >10.77 | > 36.3 µM | 5.47 |  |  |
| Cc1cc2c(c(O)c1-c1c(C)cc3c(c1O)/C(=C/N[C@@H](Cc1c[nH]c4ccccc14)C(=O)[O-])C(=O)C(O)=C3C(C)C)/C(=C/N[C@@H](Cc1c[nH]c3ccccc13)C(=O)[O-])C(=O)C(O)=C2C(C)C.[Na+].[Na+] (stereo in doubt; (-)-7a) | >67.26 | > 35.6 µM | 6.28 |  |  |
| Cc1cc2c(c(O)c1-c1c(C)cc3c(c1O)/C(=C/N[C@H](C(=O)[O-])C(C)C)C(=O)C(O)=C3C(C)C)/C(=C/N[C@H](C(=O)[O-])C(C)C)C(=O)C(O)=C2C(C)C.[Na+].[Na+] (stereo in doubt; (-)-6a) | >16.66 | > 43.8 µM | 5.58 |  |  |
| Cc1cc2c(C(C)C)c(O)c(O)c(C=O)c2c(O)c1-c1c(C)cc2c(C(C)C)c(O)c(O)c(C=O)c2c1O [GOSSYPOL] |  | 35.4 µM | 5.42 and 5.73 |  | inhibition (H5N1 subtype [4]): inactive; inhibition (Influenza A virus [5]): inactive; inhibition (Influenza A virus [6]): inactive; inhibition (Influenza A virus [7]): inactive; inhibition (H5N1 subtype [8]): inactive; pIC50 (H5N1 subtype [9]): 5.67; selectivity ratio [10]: 1.65 |
| Cc1cc2c(c(O)c1-c1c(C)cc3c(c1O)/C(=C/N[C@@H]1[C@@H](O)[C@H](O)[C@@H](CO)O[C@H]1O)C(=O)C(O)=C3C(C)C)/C(=C/N[C@@H]1[C@@H](O)[C@H](O)[C@@H](CO)O[C@H]1O)C(=O)C(O)=C2C(C)C |  | 21.8 µM |  |  | IC50 (Influenza A virus [3]; mdck): Not Active |
| COc1c(OC)c(C=O)c2c(OC)c(-c3c(C)cc4c(C(C)C)c(OC)c(OC)c(C=O)c4c3OC)c(C)cc2c1C(C)C |  |  |  |  | pIC50 (H5N1 subtype [9]): 3.99; selectivity ratio [10]: > 0.54 |
| Cc1cc2c(c(O)c1-c1c(C)cc3c(c1O)/C(=C/N[C@@H](C)C(=O)[O-])C(=O)C(O)=C3C(C)C)/C(=C/N[C@@H](C)C(=O)[O-])C(=O)C(O)=C2C(C)C.[Na+].[Na+] (stereo in doubt; (+)-5b) | 100.72 |  | 6.33 | 47.3 µM |  |
| CC(=O)Oc1c(OC(C)=O)c(C(=O)O)c2c(OC(C)=O)c(-c3c(C)cc4c(C(C)C)c(OC(C)=O)c(OC(C)=O)c(C(=O)O)c4c3OC(C)=O)c(C)cc2c1C(C)C | 18.22 and 12.01 | 41.5 µM | 5.64 |  | pIC50 (Influenza A virus [3]; Influenza A virus, MDCK): 5.46; pIC50 (H5N1 subtype [9]): 5.53; selectivity ratio [10]: > 8.7 |
| CC[C@H](C)[C@H](N/C=C1\C(=O)C(O)=C(C(C)C)c2cc(C)c(-c3c(C)cc4c(c3O)/C(=C/N[C@H](C(=O)[O-])[C@@H](C)CC)C(=O)C(O)=C4C(C)C)c(O)c21)C(=O)[O-].[Na+].[Na+] (stereo in doubt; (+)-8b) | 132.03 |  | 6.49 | 42.2 µM |  |
| Cc1cc2c(c(O)c1-c1c(C)cc3c(c1O)/C(=C/N[C@@H](C)C(=O)[O-])C(=O)C(O)=C3C(C)C)/C(=C/N[C@@H](C)C(=O)[O-])C(=O)C(O)=C2C(C)C.[Na+].[Na+] (stereo in doubt; (-)-5a) | >44.24 | > 47.3 µM | 5.97 |  |  |
| Cc1cc2c(c(O)c1-c1c(C)cc3c(c1O)/C(=C/N[C@@H](Cc1c[nH]c4ccccc14)C(=O)[O-])C(=O)C(O)=C3C(C)C)/C(=C/N[C@@H](Cc1c[nH]c3ccccc13)C(=O)[O-])C(=O)C(O)=C2C(C)C.[Na+].[Na+] (stereo in doubt; (+)-7b) | 142.6 |  | 6.60 | 35.6 µM |  |
| NC12CC3CC(CC(C3)C1)C2 [AMANTADINE] | >57.39 | > 220 µM |  |  | pIC50 (Influenza A virus [3]; Influenza A virus, MDCK): 5.42; pIC50 (H5N1 subtype [9]): 5.42; selectivity ratio [10]: > 57.4 |
| COC(=O)[C@H](Cc1c[nH]c2ccccc12)N/C=C1\C(=O)C(O)=C(C(C)C)c2cc(C)c(-c3c(C)cc4c(c3O)/C(=C/N[C@@H](Cc3c[nH]c5ccccc35)C(=O)OC)C(=O)C(O)=C4C(C)C)c(O)c21 (stereo in doubt; (+)-11b) | 22.68 |  | 5.80 | 36.3 µM |  |
| Cc1cc2c(c(O)c1-c1c(C)cc3c(c1O)/C(=C/N[C@@H](C)C(=O)O)C(=O)C(O)=C3C(C)C)/C(=C/N[C@@H](C)C(=O)O)C(=O)C(O)=C2C(C)C (stereo in doubt; (-)-5a) |  |  |  |  | inhibition (H5N1 subtype [4]): inactive; inhibition (Influenza A virus [5]): inactive; inhibition (Influenza A virus [6]): inactive; inhibition (Influenza A virus [7]): inactive; inhibition (H5N1 subtype [8]): inactive |
| COC(=O)[C@H](C)N/C=C1\C(=O)C(O)=C(C(C)C)c2cc(C)c(-c3c(C)cc4c(c3O)/C(=C/N[C@@H](C)C(=O)OC)C(=O)C(O)=C4C(C)C)c(O)c21 (stereo in doubt; (+)-10b) | 50.94 |  | 6.02 | 48.4 µM |  |
| Cc1cc2c(c(O)c1-c1c(C)cc3c(c1O)/C(=C/NC(C)(C)C(=O)[O-])C(=O)C(O)=C3C(C)C)/C(=C/NC(C)(C)C(=O)[O-])C(=O)C(O)=C2C(C)C.[Na+].[Na+] (stereo in doubt; (+)-9b) | 51.11 |  | 6.05 | 45.5 µM |  |
| Cc1cc2c(c(O)c1-c1c(C)cc3c(c1O)/C(=C/N[C@@H](C)C(=O)O)C(=O)C(O)=C3C(C)C)/C(=C/N[C@@H](C)C(=O)O)C(=O)C(O)=C2C(C)C (stereo in doubt; (+)-5b) |  |  |  |  | inhibition (H5N1 subtype [4]): inactive; inhibition (Influenza A virus [5]): inactive; inhibition (Influenza A virus [6]): inactive; inhibition (Influenza A virus [7]): inactive; inhibition (H5N1 subtype [8]): inactive |
| Cc1cc2c(c(O)c1-c1c(C)cc3c(c1O)/C(=C/N[C@H](C(=O)[O-])C(C)C)C(=O)C(O)=C3C(C)C)/C(=C/N[C@H](C(=O)[O-])C(C)C)C(=O)C(O)=C2C(C)C.[Na+].[Na+] (stereo in doubt; (+)-6b) | 34.5 |  | 5.90 | 43.8 µM |  |
| COc1c(OC)c(C(=O)O)c2c(OC)c(-c3c(C)cc4c(C(C)C)c(OC)c(OC)c(C(=O)O)c4c3OC)c(C)cc2c1C(C)C |  |  |  |  | pIC50 (H5N1 subtype [9]): 3.80; selectivity ratio [10]: > 0.33 |
